Results as given in patent US6656690B2, “Mass spectrometric methods for biomolecular screening” (priority 1998, dated 2003).
Where two headings read alike, the source gives them in different places.

Legend:
[1] = target: 27-mer model of the bacterial A site region, chimeric C; test: Binding to 27-mer A site model as chimeric 2'-O-methylribonucleotide with three deoxyadenosines (C); conditions: RNA C
Description: The 27-mer model of a segment of the bacterial A site region has been prepared as a full ribonucleotide (see FIG. 27, compound R), and as a chimeric 2′-O-methylribonucleotide containing three deoxyadenosine residues (see FIG. 27, compound C). RNAs R and C have been prepared using conventional phosphoramidite chemistry on solid support. Phosphoramidites were purchased from Glen Research and used as 0.1 M solutions in acetonitrile. RNA R was prepared following the procedure given in Wincott, et al., Nucl. Acids Res., 1995, 23, 2677-2684, the disclosure of which is incorporated herein by reference in its entirety. RNA C was prepared using standard coupling cycles, deprotected, and precipitated from 10 M NH4OAc. The aminoglycoside paromomycin binds to both R and C with kD values of 0.25 and 0.45 micromolar, respectively. The reported kD values are around 0.2 μM. […]
The mass spectrum obtained from a 5 μM solution of C mixed with 125 nM paromomycin (FIG. 28A) contains [M-5H]5− ions from free C at m/z 1783.6 and the [M-5H]5− ions of the paromomycin-C complex at m/z 1907.3. […] Signals from the [M-4H]4− ions of C and the complex are detected at m/z 2229.8 and 2384.4, respectively. […] Fragment ions are detected at m/z 1005.6 (w6)2−, 1065.8 (a7-B)2−, 1162.6 (w7)2−, 1756.5 (M-Ad)5−, 2108.9 (w21-Ad)3−, 2153.4 (a20-B)3−, 2217.8 (w21)3−, and 2258.3 (a21-B)3−. […]

[2] = target: prokaryotic 16S rRNA (the A-site); conditions: cited from earlier work

In the case of `NC[C@@H]1O[C@H](O[C@H]2[C@@H](O)[C@H](O[C@@H]3[C@@H](O)[C@H](N)C[C@H](N)[C@H]3O[C@H]3O[C@H](CO)[C@@H](O)[C@H](O)[C@H]3N)O[C@@H]2CO)[C@H](N)[C@@H](O)[C@@H]1O` [paromomycin], the Kd [1] is given as 0.45 µM, the Kd ([2]; 16S A-site, previously reported, listed as Paromomycin, read-out: literature / solution KD) is given as about 0.2 µM and the Kd ([2]; 16S A-site, previously reported, read-out: literature / solution KD) is given as 0.2 µM. For the same compound, the Kd ([2]; Recht 1996, Wong 1998, Wang 1997, read-out: reported kD values) was about 0.2 µM and the Kd ([2]; test 27-mer RNA, known from other experiments or literature, read-out: binding affinity) was about 1 µM.
